# From patent US10314816B2, “Antimicrobial compounds, compositions and methods of use thereof” (Wisconsin Alumni Research Foundation, priority 2012, dated 2019)
# What was measured:
# [1] = test system: E. coli BW25113 ΔtolC; assay: MIC of bacterial growth, macrodilution (Table 2); type: cell-based, Escherichia coli
# Description: (§1) Bacterial strains and growth conditions. Luria-Bertani (LB) media (10 g/L tryptone, 10 g/L NaCl, 5 g/L yeast extract, pH 7.2) was used to grow B. subtilis 168, S. aureus FRI100, and P. aeruginosa K1115 strains. For P. aeruginosa PAO1 and K1119 strains and two E. coli BW25113 strains, M8 minimal media (241 mg/L MgSO4, 4 mg/L glucose, 5 mg/L casamino acids, 12.8 g/L Na2HPO4.7H2O, 3 g/L KH2PO4, and 0.5 g/L NaCl) was used. PYE media (2 g/L peptone, 1 g/L yeast extract, 0.8 mM MgSO4, and 0.5 mM CaCl2) was used for culturing C. crescentus cells at 30° C. All cultures were grown at 37° C., except for C. crescentus (30° C.). All cultures were grown while shaking at 200 rpm.
# (§2) Determination of the minimum inhibitory concentration (MIC) of bacterial growth. The MIC of various organisms in liquid media was determined using the macrodilution method according to the NCCLS guidelines. For the starting inoculum, cultures were diluted to contain approximately 5×10^5 cells/mL in growth media. To create a two-fold dilution series for the macrodilution technique, each compound was added to the first culture tube (4 mL total volume) at the highest concentration. 2 mL of this culture was diluted into an equal volume of inoculated media (a two-fold dilution). The final volume for each culture was 2 mL.
# [2] = test system: MipZ-YFP; assay: Effects of compounds on MipZ localization; type: cell-based, Caulobacter crescentus; conditions: DCAP 20 μM, 20 min after treating C. crescentus cells; p=0.0002 vs DMSO
# Description: Effects of compounds on MipZ localization. A strain of C. crescentus in which MipZ was translationally fused to yellow fluorescent protein (YFP) was used to determine the effect of DCAP on MipZ localization. For experiments with C. crescentus expressing MipZ-YFP, overnight cultures were diluted 10-fold and incubated at least 1 hour prior to treatment with compounds. After adding compounds, cells were incubated at 200 rpm and 30° C. for 20 minutes. Cells were imaged as described above. Following cell segmentation and fluorescence signal calculation in MicrobeTracker, a separate MATLAB script was used to detect signal peaks within an individual cell. The number of total peaks and peak locations were calculated (i.e., poles or mid-cell) for each cell. Poles were defined as 1-25% and 75-100% along the normalized cell length (1-100%). […] After this classification, a contingency table was created with the total number of cells analyzed, and the number of cells with the ‘wildtype’ localization. […]
# As a positive control, carbonyl cyanide m-chlorophenyl hydrazone (CCCP) was used. In FIG. 3, ‘wildtype’ (WT) localization was defined as 1) unipolar (a single peak of fluorescence signal at a pole) and 2) bipolar (two peaks at poles). […] At least 69 cells were analyzed for each sample. […]
# [3] = test system: S. boydii; assay: MIC of bacterial growth (Table 2); type: cell-based; conditions: Shigella boydii; S. boydii clinical isolate (Table 2)
# Description: as §2
# [4] = test system: V cholera; assay: MIC of bacterial growth (Table 2); type: cell-based; conditions: Vibrio cholerae
# Description: as §2
# [5] = test system: K. pneumoniae; assay: MIC of bacterial growth (Table 2); type: cell-based; conditions: Klebsiella pneumoniae; K. pneumoniae clinical isolate (Table 2)
# Description: as §2
# [6] = test system: A. baumannii; assay: MIC of bacterial growth (Table 2); type: cell-based; conditions: Acinetobacter baumannii; A. baumannii clinical isolate (Table 2)
# Description: as §2
# [7] = test system: M. morganii; assay: MIC of bacterial growth (Table 2); type: cell-based; conditions: Morganella morganii; M. morganii clinical isolate (Table 2)
# Description: as §2
# [8] = test system: E. tarda; assay: MIC of bacterial growth (Table 2); type: cell-based; conditions: Edwardsiella tarda; E. tarda clinical isolate (Table 2)
# Description: as §2
# [9] = test system: S. typhimurium; assay: MIC of bacterial growth (Table 2); type: cell-based; conditions: Salmonella enterica; S. typhimurium clinical isolate (Table 2)
# Description: as §2
# [10] = test system: C. crescentus cells; assay: Cell lysis observed by phase contrast microscopy; type: cell-based, Caulobacter crescentus
# Description: The lysed cells appear fainter in phase contrast images, compared to un-lysed cells (e.g., a cell in the white circle).
# At high concentrations of DCAP (≥75 μM), cell lysis within minutes after treatment was observed (FIG. 4).
# [11] = test system: E. coli BW25113; assay: MIC of bacterial growth, macrodilution (Table 2); type: cell-based; conditions: Escherichia coli
# Description: as §1, §2
structure (smiles),measurement,setting,value
"OCC(CO)(CO)NCC(O)Cn1c2ccc(Cl)cc2c2cc(Cl)ccc21 (stereo not drawn) [DCAP, 2-((3-(3,6-dichloro-9H-carbazol-9-yl)-2-hydroxypropyl)amino)-2-(hydroxymethyl)propane-1,3-diol]",Reduction of MIC on deleting tolC in E. coli BW25113,[1]; BW25113 vs BW25113 ΔtolC,4 fold
same,MIC,"[1]; Escherichia coli, BW25113",20 µM
same,MipZ-YFP localization,[2],caused MipZ-YFP to mislocalize
same,MIC,[3],100 µM
same,MIC,[4],100 µM
same,MIC,[5],100 µM
same,MIC,[6],200 µM
same,MIC,[7],200 µM
same,MIC,[8],200 µM
same,MIC,[9],50 µM
same,Concentration at which cell lysis was observed within minutes after treatment,[10],≥ 75 µM
same,MIC,[11],80 µM
